Source: patent publication US10018911B2, “Chemically amplified resist material and resist pattern-forming method” (JSR CORPORATION, priority 2015, dated 2018)

Assay: Absorbance measurement of component (b) and derived sensitizing agent, 0.0001% by mass cyclohexane solution
Assay type: physicochemical
Procedure: The component (b) and the sensitizing agent derived from the component (b) are shown together in Table 2. With respect to each of the components (b) and the sensitizing agents derived from the components (b), a 0.0001% by mass cyclohexane solution thereof was prepared. The absorbance of the solution prepared thus was measured using cyclohexane as a reference solvent and a spectrophotometer (“V-670” available from JASCO Corporation).
The absorbance was evaluated to be: “transparent” in a case where the measurement value of the absorbance was less than 0.01 over the entire wavelength range of no less than 300 nm and no greater than 450 nm; and “absorbing” in a case where the measurement value of the absorbance was no less than 0.01 at at least one wavelength within the entire wavelength range of no less than 300 nm and no greater than 450 nm.

SMILES	Absorbance (300-450 nm) of (b) component
COc1ccc(C(OC)(OC)c2ccc(OC)cc2)cc1 [Example B-2]	transparent (the measurement value of the absorbance was less than 0.01 over the entire wavelength range of no less than 300 nm and no greater than 450 nm)
COc1ccc(C(O)c2ccc(OC)cc2)cc1 [Example B-1, bis(4-methoxyphenyl)methanol]	transparent (the measurement value of the absorbance was less than 0.01 over the entire wavelength range of no less than 300 nm and no greater than 450 nm)
